≈ marks a conversion by molar mass, not a printed value.
Experiments:
[1] = Cytotoxicity colorimetric (tetrazolium) assay; format: cell-based, human; details: human, HepG2 cells, one hour with compound in serum-free media
Experimental: (§1) Cytotoxicity of the compounds was evaluated in a colorimetric assay using a transformed human liver cell line (HepG2, HB-8065) and an embryonic mouse cell line (NIH/3T3 cells, CRL-1658). This assay measures the bioreduction of a novel tetrazolium compound to a soluble formazan product by viable cells. HepG2 cells were seeded in 96 well plates at 2×10^4 cells/well in MEM medium with 10% fetal bovine serum (FBS) 24 hours prior to use. NIH/3T3 cells were seeded in 96 well plates at 2×10^4 cells/well in DMEM medium with 10% bovine calf serum (BCS) 24 hours prior to use. Cell monolayers were rinsed in serum-free media and incubated for one hour with compounds in serum-free media. After incubation, the media is replaced with serum supplemented media and live cells were measured using the Cell Titer 96 Aqueous […] Assay kit (Promega, Madison, Wis.). EC50 values were determined using a four parameter logistic equation: Y=Bottom+(Top-Bottom)/(1+10̂((LogEC50−X)*HillSlope)).
(§2) Actual results from a representative cytotoxicity assay are shown below in Table 2. Data is expressed as EC50 in μg/mL.

[2] = test system: Pseudomonas aeruginosa ATCC 10145; assay: Minimum Inhibitory Concentration (MIC), modified microbroth dilution; format: cell-based; details: P. aeruginosa (10145), overnight incubation (18 hours); for MIC50: Pseudomonas aeruginosa, ATCC10145, read-out: MIC50 P. Aeruginosa
[3] = test system: Staphylococcus aureus ATCC 27660; assay: as above; format: cell-based; details: S. aureus (27660), overnight incubation (18 hours); for MIC50: Staphylococcus aureus, ATCC27660, read-out: MIC50 S. aureus
[4] = Cytotoxicity colorimetric (tetrazolium) assay; format: cell-based, mouse; details: mouse, NIH/3T3 cells, one hour with compound in serum-free media
Experimental: as §1, §2

[5] = test system: E. Coli ATCC 25922; assay: Minimum Inhibitory Concentration (MIC), modified microbroth dilution; format: cell-based; details: E. coli (25922), overnight incubation (18 hours); for MIC50: Escherichia coli, ATCC25922, read-out: MIC50 E. coli
[6] = test system: Klebsiella pneumoniae ATCC 13883; assay: as above; format: cell-based; details: K. pneumoniae (13883), overnight incubation (18 hours); for MIC50: Klebsiella pneumoniae, ATCC13883, read-out: MIC50 K. Pnuemnoiae
[7] = test system: Enterococcus faecalis ATCC 29212; assay: as above; format: cell-based; details: E. faecalis (29212), overnight incubation (18 hours); for MIC50: Enterococcus faecalis, ATCC29212, read-out: MIC50 E. faecalis

MIC50 [2] [µg/mL]	MIC50 [3] [µg/mL]	MIC50 [5] [µg/mL]	MIC50 [6] [µg/mL]	MIC50 [7] [µg/mL]	Compound	EC50 at 1 h ([4]; NIH/3T3 cells (CRL-1658)) [µg/mL]	MIC50 E. faecalis [7] [µg/mL]	MIC50 P. Aeruginosa [2] [µg/mL]	MIC50 S. aureus [3] [µg/mL]	MIC50 E. coli [5] [µg/mL]	MIC50 K. Pnuemnoiae [6] [µg/mL]	also measured
100 (≈ 262 µM)	12.5 (≈ 32.7 µM)	12.5 (≈ 32.7 µM)	25 (≈ 65.4 µM)	–	NCCCn1c2cc(Br)ccc2c2ccc(Br)cc21 [Compound 106]	107 (≈ 280 µM)	–	–	–	–	–	EC50 at 1 h ([1]; HepG2 cells (HB-8065)): 61.9 µg/mL (≈ 162 µM)
12.5 (≈ 17 µM)	0.39 (≈ 0.531 µM)	6.25 (≈ 8.5 µM)	3.13 (≈ 4.26 µM)	0.78 (≈ 1.06 µM)	N=C(N)NCCc1cc(CCNC(=N)N)cc(-c2ccc(-c3cccc(-c4ccc(-c5cc(CCNC(=N)N)cc(CCNC(=N)N)c5)s4)c3)s2)c1 [Compound 139]	–	–	–	–	–	–	–
12.5 (≈ 20.2 µM)	0.78 (≈ 1.26 µM)	0.78 (≈ 1.26 µM)	12.5 (≈ 20.2 µM)	12.5 (≈ 20.2 µM)	N=C(N)NC/C=C/c1cc(/C=C/CNC(=N)N)cc(-c2cccc(-c3cc(/C=C/CNC(=N)N)cc(/C=C/CNC(=N)N)c3)c2)c1 [Compound 118]	–	–	–	–	–	–	–
–	–	–	–	–	N=C(N)NCCCOc1cc(OCCCNC(=N)N)c(-c2ccc(F)c(F)c2)cc1-c1ccc(F)c(F)c1 [Compound 119]	113 (≈ 213 µM)	–	–	–	–	–	–
25 (≈ 60.3 µM)	6.25 (≈ 15.1 µM)	50 (≈ 121 µM)	–	25 (≈ 60.3 µM)	NCCCn1cc(-c2ccc3oc4ccc(-c5cnn(CCCN)c5)cc4c3c2)cn1 [Compound 157]	713 (≈ 1720 µM)	–	–	–	–	–	EC50 at 1 h ([1]; HepG2 cells (HB-8065)): 461 µg/mL (≈ 1110 µM)
12.5 (≈ 21.5 µM)	0.78 (≈ 1.34 µM)	1.56 (≈ 2.69 µM)	3.13 (≈ 5.39 µM)	0.39 (≈ 0.672 µM)	NCC(CN)c1cc(Br)cc(C#Cc2cccc(C#Cc3cc(Br)cc(C(CN)CN)c3)c2)c1 [Compound 190]	–	–	–	–	–	–	–
12.5 (≈ 20.6 µM)	0.39 (≈ 0.643 µM)	3.13 (≈ 5.16 µM)	12.5 (≈ 20.6 µM)	12.5 (≈ 20.6 µM)	NCCCn1c2cc(-c3cccc(CN(CCN)CCN)c3)ccc2c2ccc(-c3cccc(CN(CCN)CCN)c3)cc21 [Compound 178]	–	–	–	–	–	–	EC50 at 1 h ([1]; HepG2 cells (HB-8065)): 228 µg/mL (≈ 376 µM)
12.5 (≈ 21.9 µM)	25 (≈ 43.8 µM)	6.25 (≈ 11 µM)	25 (≈ 43.8 µM)	–	O=C(Nc1ccc(-c2ccc(N3CCNCC3)nc2)cc1F)Nc1ccc(-c2ccc(N3CCNCC3)nc2)cc1F [Compound 141]	404 (≈ 708 µM)	–	–	–	–	–	EC50 at 1 h ([1]; HepG2 cells (HB-8065)): 24.4 µg/mL (≈ 42.8 µM)
–	–	–	–	–	N=C(N)NCCCOc1cc(-c2ccc3sc4ccc(-c5cc(OCCCNC(=N)N)c(OCCCNC(=N)N)c(OCCCNC(=N)N)c5)cc4c3c2)cc(OCCCNC(=N)N)c1OCCCNC(=N)N [Compound 186]	–	3.13 (≈ 3.05 µM)	12.5 (≈ 12.2 µM)	0.78 (≈ 0.759 µM)	12.5 (≈ 12.2 µM)	6.25 (≈ 6.08 µM)	–
12.5 (≈ 17.7 µM)	0.78 (≈ 1.11 µM)	0.78 (≈ 1.11 µM)	3.13 (≈ 4.44 µM)	1.56 (≈ 2.21 µM)	NCCCN1c2ccc(NC(=O)Nc3ccc4c(c3)Sc3ccc(C(F)(F)F)cc3N4CCCN)cc2Sc2ccc(C(F)(F)F)cc21 [Compound 143]	–	–	–	–	–	–	–
–	–	–	–	–	NCCNc1ccc(-c2ccc3sc4ccc(-c5ccc(NCCN)cc5)cc4c3c2)cc1 [Compound 173]	–	1.56 (≈ 3.45 µM)	>50	0.195 (≈ 0.431 µM)	6.25 (≈ 13.8 µM)	3.13 (≈ 6.92 µM)	–
–	–	–	–	–	NCCn1cc(-c2cccc(-c3cn(CCN)nn3)c2)nn1 [Compound 109]	–	>100	>100	>100	>100	>100	–
–	–	–	–	–	NCCCCn1cc(-c2cccc(-c3cn(CCCCN)nn3)c2)nn1 [Compound 107]	–	>100	>100	>100	>100	>100	–
–	–	–	–	–	NCCc1cc(CCN)cc(-c2cc(F)cc(-c3cc(F)cc(-c4cc(CCN)cc(CCN)c4)c3)c2)c1 [Compound 150]	–	–	–	–	–	–	EC50 at 1 h [1]: 486 µg/mL (≈ 944 µM); EC50 at 1 h [4]: 427 µg/mL (≈ 830 µM)
6.25 (≈ 10.2 µM)	0.78 (≈ 1.28 µM)	3.13 (≈ 5.13 µM)	12.5 (≈ 20.5 µM)	0.78 (≈ 1.28 µM)	N=C(N)NCC#Cc1cc(C#CCNC(=N)N)cc(-c2cccc(-c3cc(C#CCNC(=N)N)cc(C#CCNC(=N)N)c3)c2)c1 [Compound 123]	115 (≈ 188 µM)	–	–	–	–	–	–
–	–	–	–	–	NCCCn1c2ccccc2c2ccccc21 [Compound 105]	–	>100	>100	>100	>100	>100	–
–	–	–	–	–	CCn1c2ccc(-c3cccc(N)c3)cc2c2cc(-c3cccc(N)c3)ccc21 [Compound 176]	–	>50	12.5 (≈ 33.1 µM)	0.39 (≈ 1.03 µM)	12.5 (≈ 33.1 µM)	>50	–
–	–	–	–	–	N=C(N)NCCC#Cc1cc(-c2cc(OCCCNC(=N)N)cc(-c3cc(C#CCCNC(=N)N)cc(C(F)(F)F)c3)c2)cc(C(F)(F)F)c1 [Compound 121]	37 (≈ 52.9 µM)	–	–	–	–	–	–
–	–	–	–	–	NCCCn1cc(-c2cccc(-c3cn(CCCN)nn3)c2)nn1 [Compound 108]	–	>100	>100	>100	>100	>100	–
–	–	–	–	–	N=C(N)NCCCOc1cc(OCCCNC(=N)N)cc(-c2ccc3sc4ccc(-c5cc(OCCCN)c(OCCCN)c(OCCCN)c5)cc4c3c2)c1 [Compound 185]	–	1.56 (≈ 1.98 µM)	25 (≈ 31.8 µM)	0.78 (≈ 0.992 µM)	6.25 (≈ 7.95 µM)	12.5 (≈ 15.9 µM)	–
–	–	–	–	–	Cl.Cl.NCCCc1cccc(-c2cccc(-c3cccc(CCCN)c3)c2)c1 [Compound 110]	–	100	100	25	25	100	–
> 100	100 (≈ 295 µM)	100 (≈ 295 µM)	> 100	> 100	NCCCN1c2ccc(N)cc2Sc2ccc(C(F)(F)F)cc21 [Compound 104]	–	–	–	–	–	–	–
50 (≈ 113 µM)	50 (≈ 113 µM)	50 (≈ 113 µM)	> 50	25 (≈ 56.5 µM)	NCC#Cc1cc(C#CCN)cc(-c2cccc(-c3cc(C#CCN)cc(C#CCN)c3)c2)c1 [Compound 124]	192 (≈ 435 µM)	–	–	–	–	–	–
–	–	–	–	–	N=C(N)NCCCOc1cc(OCCCNC(=N)N)c(-c2cc(F)c(F)c(F)c2)cc1-c1cc(F)c(F)c(F)c1 [Compound 120]	99 (≈ 174 µM)	–	–	–	–	–	–
12.5 (≈ 22.1 µM)	0.39 (≈ 0.688 µM)	12.5 (≈ 22.1 µM)	25 (≈ 44.1 µM)	1.56 (≈ 2.75 µM)	NCCc1cc(CCN)cc(-c2ccc(-c3cccc(-c4ccc(-c5cc(CCN)cc(CCN)c5)s4)c3)s2)c1 [Compound 138]	–	–	–	–	–	–	–
50 (≈ 111 µM)	12.5 (≈ 27.7 µM)	25 (≈ 55.5 µM)	> 50	50 (≈ 111 µM)	NC/C=C/c1cc(/C=C/CN)cc(-c2cccc(-c3cc(/C=C/CN)cc(/C=C/CN)c3)c2)c1 [Compound 117]	–	–	–	–	–	–	–
> 100	25 (≈ 77.1 µM)	25 (≈ 77.1 µM)	50 (≈ 154 µM)	12.5 (≈ 38.5 µM)	NCCCN1c2ccccc2Sc2ccc(C(F)(F)F)cc21 [Compound 101]	9 (≈ 27.7 µM)	–	–	–	–	–	–
> 100	50 (≈ 149 µM)	> 100	> 100	> 100	N=C(N)Nc1ccc(-c2nnc(-c3ccc(NC(=N)N)cc3)o2)cc1 [Compound 127]	–	–	–	–	–	–	–
> 100	25 (≈ 86 µM)	> 100	> 100	> 100	NCCCN1c2ccccc2Sc2ccc(Cl)cc21 [Compound 103]	–	–	–	–	–	–	–
